Converted amounts (≈) assume the structure as drawn. Like-named read-outs stand apart in the source and are kept apart here.
Tests used:
NFKB2 = format: in vivo, rats; settings: Mean ± SE
Method: Rats were divided randomly into equal fifteen groups, each containing 9 rats as follows: • Group 1: Rats were kept on standard laboratory chow and water ad libitum to serve as a control. • Group 2: Rats have injected IP with sterile distilled water (4ml/kg) daily for one week to serve as a control. • Group 3: Rats have injected IP with DEMSO (dimethyl sulfoxide) (4 ml/kg) daily for one week to serve as a control. • Group 4: Rats have injected IP with 4h (1.9 mg/kg) daily for one week. • Group 5: Rats have injected IP with 4h (3.8 mg/kg) daily for one week. • Group 6: Rats have injected IP with 4i (1.9 mg/kg) daily for one week. • Group 7: Rats have injected IP with 4i (3.8 mg/kg) daily for one week. • Group 8: Rats were infected by a single IM injection of S. aureus strain [1.0 ml) 1 × 10^7) colony-forming units]. • Group 9: Rats have injected IP with 4h (1.9 mg/kg) daily for one week on the 7th day after induction of infection by a single IM injection of S. aureus strain [1.0 ml (1 × 10^7) colony-forming units. • Group 10: Rats have injected IP with 4h (3.8 mg/kg) daily for one week on the 7th day after induction of infection by a single IM injection of S. aureus strain [1.0 ml (1 × 10^7) colony-forming units]. • Group 11: Rats were infected by a single IM injection of S. typhi strain [1.0 ml (1 × 10^7) colony forming units). • Group 12: Rats have injected IP with 4h (1.9 mg/kg) daily for one week. on the 7th day after induction of infection by a single IM injection of S. typhi strain [1.0 ml (1 × 10^7) colony-forming units]. • Group 13: Rats have injected IP with 4h (3.8 mg/kg) daily for one week on the 7th day after infection by a single IM injection of S. typhi strain [1.0 ml (1 × 10^7) colony-forming units]. • Group 14: Rats have injected IP with 4i (1.9 mg/kg) daily for one week. on the 7th day after induction of infection by a single IM injection of S. typhi strain [1.0 ml (1 × 10^7) colony-forming units]. • Group 15: Rats have injected IP with 4i (3.8 mg/kg) daily for one week. on the 7th day after induction of infection by a single IM injection of Salmonella strain [1.0 ml (1 × 10^7) colony-forming units].
Immunohistochemistry (IHC) was performed on paraffin sections and mounted on positively charged slides to detect caspase-3 as an indicator for apoptosis and nuclear factor kappa-light-chain-enhancer of activated B cells (NFKB2) for inflammation by using the avidin-biotin-peroxidase complex (ABC) method. The exact methodology was carried out as previously described in detail.
Caspase-3 and NFKB2 immunostaining were measured as area % in a standard measuring frame in representative five fields for each subject (liver and kidneys) in all groups using 100x magnification via light microscopy transferred to the screen. […]

S. typhi = experiment: Minimal bactericidal concentration (MBC); format: cell-based; settings: Salmonella enterica
S. aureus = experiment: Biochemical analysis in S. aureus-infected rats; format: in vivo; settings: first and second dose (1.9 and 3.8 mg/kg IP daily for one week)
Method: The compounds 4h and 4j were dissolved in DMSO (dimethyl sulfoxide) then further dilutions were made by using sterile distilled water. The doses of both candidates were calculated according to the method given by Paget and Barnes[60]. Sterile distilled water, DEMSO, and investigated compounds (4h (1.9 and 3.8 mg/kg) and 4j (1.9 and 3.8 mg/kg)) were injected in a volume of 4 ml/kg[61]. The experiment lasts two weeks, the 1st week for induction of infection in the infected groups and the 2nd week for the administration of the compounds in all groups. […]
ALT and AST were determined[66] using commercial kits obtained from Diamond Diagnostics, Egypt.
Serum urea was determined by using the modified Berthelot–Searcy method. Serum creatinine activity was also assessed by using the application of Jaffe’s reaction.
Serum levels of the pro-inflammatory cytokine, TNF-α, were determined by the quantitative enzyme immunoassay (EIA) kit purchased from R&D Systems (USA) according to the method of Howard and Harada[69], while that of anti-inflammatory cytokine IL-10 was according to Croft et al.. […]

## COc1ccc(C(=O)NN=Cc2ccc3ccccc3n2)cc1OC [Compound 4i, N'-(quinolin-2-ylmethylene)-3,4-dimethoxybenzohydrazide]
NFKB2; S. typhi infected rats, 1.9 mg/kg IP daily for one week
  NFKB2, Kidney: 28.693 ± 0.4494 area %
NFKB2; S. typhi infected rats, 3.8 mg/kg IP daily for one week
  NFKB2, Kidney: 11.91 ± 1.04 area %
NFKB2; uninfected rats, 1.9 mg/kg IP daily for one week
  NFKB2, Kidney: 0.7513 ± 0.0671 area %
NFKB2; uninfected rats, 3.8 mg/kg IP daily for one week
  NFKB2, Kidney: 0.4087 ± 0.08844 area %
S. typhi
  MBC: 186 µM (≈ 62.5 µg/mL)

## N'-((3a,7a-dihydro-1H-indol-3-yl)methylene)-3,4-dimethoxybenzohydrazide [Compound 4h]
S. aureus
  renal and liver functions, oxidative stress and inflammatory markers (urea, creatinine, ALT, AST, GSH, MDA, TNF-α, IL-10): significant improvement in all the measured parameters
